Patent publication EP3409671B1, “ISOTHIAZOLE DERIVATIVES AS GPR120 AGONISTS FOR THE TREATMENT OF TYPE II DIABETES” (Janssen Pharmaceutica NV, priority 2014, dated 2015)

How the values were obtained:
Human GPR120 short form = biological target: T1, Human GPR120 short form (Homo sapiens, UniProt Q5NUL3); assay: Human GPR120 Calcium Flux Assay, Procedure Calcium B; format: cell-based; conditions: HEK-293 cells expressing Human GPR120 short form, FLIPR, 4200 cells/well; read-out: GPR120 Ca^2+ Assay B EC50
T1 construct: expressed in transfected cells
T1 sequence (Q5NUL3 1-361): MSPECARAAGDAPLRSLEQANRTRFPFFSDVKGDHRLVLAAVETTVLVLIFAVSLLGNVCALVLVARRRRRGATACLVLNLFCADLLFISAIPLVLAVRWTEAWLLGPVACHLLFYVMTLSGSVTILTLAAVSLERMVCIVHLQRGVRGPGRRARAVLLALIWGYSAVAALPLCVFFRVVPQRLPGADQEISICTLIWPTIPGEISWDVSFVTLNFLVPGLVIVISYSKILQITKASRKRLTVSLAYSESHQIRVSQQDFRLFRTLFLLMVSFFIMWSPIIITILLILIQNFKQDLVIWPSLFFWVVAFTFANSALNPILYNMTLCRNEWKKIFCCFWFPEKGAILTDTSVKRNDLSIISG
Text: This in vitro assay serves to assess test compound agonist activity against the short splice variant (SVS with Accession number NM_001195755.1 confirmed by sequencing data) of the GPR120 receptor. The Human Short splice variant #2 (NM_001195755.1) is missing an in-frame coding exon compared to variant 1 (the Human Long splice variant NM_181745.3), resulting in a shorter isoform (GPR120-S) lacking a 16 aa protein segment compared to isoform GPR120-L. The assay platform utilizes HEK-293 cells stably transfected to express the Human GPR120 short form. These cells are first loaded with the Ca^+2 sensitive dye, Fluo-4 NW. Upon stimulation, intracellular released Ca^+2 can bind to the dye and alter its fluorescence intensity. This increase in fluorescence signal, and thus the flux in intracellular [Ca^2+], is detected and quantitated by fluorescence imaging using a FLIPR reader. The effect of the agonist is measured as a function of concentration and used to calculate an EC50 based upon a response curve.
In this procedure 4200 cells/well were employed.
A Human GPR120 clone (Genbank accession number NM _001195755.1) was placed into the pcDNA3.1 mammalian expression vector carrying the neomycin resistance gene. A stable mammalian cell was generated by placing the above clone into a HEK293 background. Clonal cells responding to long chain fatty acids had expression levels of GPR120 confirmed by RT-qPCR. Human HEK-GPR120 cells were cultured in Dulbecco's Modified Eagle's Medium (DMEM)/F12 medium supplemented with 10% fetal bovine serum (FBS), 1% L-Glutamine and 1% penicillin/streptomycin and 0.5 mg/ml G-418. Cells were split 2 times a week to keep the cells in the log-phase growth.
In preparation for the assay, HEK cells stably transfected with Human GPR120 (2.5K cells per well in 25uL growth medium) were seeded into 384-well plates and then incubated overnight (37°C, 5% CO2). The next day, the media was changed to 20 µL assay buffer and the cell starved for 1h at 37°C. […]
The assay was performed on a FLIPR plate reader using the following parameters. Baseline was read for 10 seconds at 1 sec intervals. The program was set to transfer 10µL of ligand from compound plate to cell plate after baseline reading. […] After compound addition, each well was read for 300 sec, with measurements collected at 1 sec intervals.
The kinetic data from the FLIPR was based upon a 5 minute window for data collection. The fluorescence of each sample well was used for individual calculations of a normalized RFU value, which was defined as maximum response minus the minimum response. The normalized fluorescence reading (RFU) was calculated as follows: RFU = Fmax−Fmin [formula] […]

[1] = biological target: T2, short form of the GPR120 receptor (Homo sapiens, UniProt Q5NUL3); assay: Human GPR120 DiscoveRx PathHunter Beta-Arrestin assay, Procedure β-arrestin B; format: cell-based; conditions: PathHunter CHO-K1 GPR120S β-Arrestin Cell Line, 5000 cells/well, read-out: hGPR120 β-arrestin B EC50
T2 construct: host or cells: PathHunter CHO-K1 GPR120S β-Arrestin Cell Line
T2 sequence (Q5NUL3 1-361): T1 sequence (Q5NUL3 1-361)
Text: The binding of an agonist (medium/long chain fatty acids or small molecule agonists) to the G-protein-coupled receptor GPR120 activates phospholipase C, leading to release of intracellular Ca^+2 through the generation of inositol 1,4,5-trisphosphate (InsP3 or IP3). GPR120 activation can also trigger intracellular signaling via recruitment of Beta-Arrestin. In the present method, agonist-induced activation of the human GPR120 receptor is monitored through the use of PathHunter CHO-K1 GPR120 Beta-Arrestin Cell Line engineered by DiscoveRx, as detailed below. The cell lines are designed to co-express both the ProLink/Enzyme Donor (PK)-tagged GPCR and the Enzyme […] (EA)-tagged Beta-Arrestin fusion proteins. Upon GPR120 receptor stimulation / activation, the EA-tagged Beta-Arrestin portion is translocated to the tagged receptor, where the two enzyme fragments are brought within close proximity.
Under these conditions, these fragments can interact and form an active Beta-gal enzyme complex through Enzyme Fragment Complementation (EFC). This active Beta-gal complex can enzymatically hydrolyse the substrate to produce a detectable light signal; therefore, activation as a function of agonist concentration can be expressed as an EC50 value to determine relative compound activities. This in vitro assay therefore serves to assess compound agonist activity of the GPR120.
In Procedure β-arrestin B the cells used were PathHunter CHO-K1 GPR120S β-Arrestin Cell Line, expressing the short form of the GPR120 receptor (Accession #NM_181745), with 5000 cells/well. […]
The plates were read on an EnVision instrument, using Protocol name: Luminescence, Plate type: 384 Costar, Measurement height: 3 mm, Measurement time: 1s, Aperture: 384 Plate aperture. The %activity relative to the positive control was calculated using the following equation: %Activity = (Countcompound −Countvehicle)/(Countpostivite control −Countvehicle) × 100% [formula] […]

SMILES | EC50 (Human GPR120 short form) [nM] | EC50 [1] [nM]
Cc1c(CCC(=O)O)ccc(OCc2c(-c3ncc(Cl)s3)nsc2C(F)(F)F)c1C [Cpd 269, 3-(4-((3-(5-chlorothiazol-2-yl)-5-(trifluoromethyl)isothiazol-4-yl)methoxy)-2,3-dimethylphenyl)propanoic acid] | 194 | 676
COc1cnc(-c2nsc(C(F)(F)F)c2COc2c(F)cc(CCC(=O)O)cc2F)s1 [Cpd 267, 3-(3,5-difluoro-4-((3-(5-methoxythiazol-2-yl)-5-(trifluoromethyl)isothiazol-4-yl)methoxy)phenyl)propanoic acid] | 274 | 526
COc1cnc(-c2nsc(C(F)(F)F)c2COc2ccc(CCC(=O)O)c(C)c2C)s1 [Cpd 268, 3-(4-((3-(5-methoxythiazol-2-yl)-5-(trifluoromethyl)isothiazol-4-yl)methoxy)-2,3-dimethylphenyl)propanoic acid] | 473 | 445
